Measured values from ChEMBL document CHEMBL4840346, “Amakusamine from a Psammocinia sp. Sponge: Isolation, Synthesis, and SAR Study on the Inhibition of RANKL-Induced Formation of Multinuclear Osteoclasts” (J Nat Prod, 2021).
Activity calls are given as the source filed them. The rule behind the calls is not given here.

Legend:
RAW264.7 [1] = assay: Inhibition of RANKL-induced osteoclastogenesis in mouse RAW264.7 cells assessed as reduction in number of TRAP-positive multinuclear cells measured after 4 days by TRAP staining based assay; format: functional, cell-based
RAW264.7 [2] = assay: Cytotoxicity against mouse RAW264.7 cells at 50 uM by MTT assay; format: cell-based; details: raw264.7, 50 µM
RAW264.7 [3] = assay: Inhibition of RANKL-induced osteoclastogenesis in mouse RAW264.7 cells assessed as reduction in NFATc1 mRNA expression measured after 24 hrs by RT-PCR analysis; format: functional, cell-based; details: dose 30-50 µM
RAW264.7 [4] = assay: Cytotoxicity against mouse RAW264.7 cells at 25 uM by MTT assay; format: cell-based; details: raw264.7, 25 µM
RAW264.7 [5] = assay: Inhibition of RANKL-induced osteoclastogenesis in mouse RAW264.7 cells assessed as reduction in number of TRAP-positive multinuclear cells at 50 uM measured after 4 days by TRAP staining based assay; format: functional; details: for inhibition: time 4.0 day

For CCCC(=O)n1ccc2c(Br)c3c(c(Br)c21)OCO3, the IC50 (RAW264.7 [1]; Mus musculus, RAW264.7, 96 h) was 7.9 µM and the Activity (RAW264.7 [2]) was “Non-Toxic”.
With COc1c(OC)c(Br)c2[nH]ccc2c1Br the IC50 (RAW264.7 [1]; Mus musculus, RAW264.7, 96 h) was 6.3 µM and the Activity (RAW264.7 [2]) was “Non-Toxic”.
For Brc1c2c(c(Br)c3[nH]ccc13)OCO2, the inhibition (RAW264.7 [3]) was “Dose-Dependent Effect”, the IC50 (RAW264.7 [1]; Mus musculus, RAW264.7, 96 h) was 10.5 µM and the IC50 (RAW264.7 [1]; raw264.7) was 9.4 µM. For the same molecule, the inhibition (RAW264.7 [1]; time 4.0 day) was “Dose-Dependent Effect” and the Activity (RAW264.7 [2]) was “Non-Toxic”.
With NCCc1c[nH]c2c(Br)c3c(c(Br)c12)OCO3 the Activity (RAW264.7 [4]) was “Toxic” and the IC50 (RAW264.7 [1]; Mus musculus, RAW264.7, 96 h) was 5.9 µM.
For Clc1c2c(c(Cl)c3[nH]ccc13)OCO2, the IC50 (RAW264.7 [1]; Mus musculus, RAW264.7, 96 h) was 40 µM and the Activity (RAW264.7 [2]) was “Non-Toxic”.
In the case of Brc1c2c(cc3[nH]ccc13)OCO2, the IC50 (RAW264.7 [1]; Mus musculus, RAW264.7, 96 h) is reported as 16.8 µM and the Activity (RAW264.7 [2]) is reported as “Non-Toxic”.
For Brc1c2c(c(Br)c3c1OCO3)NCC2, the IC50 (RAW264.7 [1]; Mus musculus, RAW264.7, 96 h) was 25.6 µM and the Activity (RAW264.7 [2]) was “Non-Toxic”.
In the case of c1cc2cc3c(cc2[nH]1)OCO3, the Activity (RAW264.7 [2]) is reported as “Non-Toxic” and the inhibition (RAW264.7 [5]) is reported as “inactive”.
In the case of O=C(c1ccccc1)n1ccc2c(Br)c3c(c(Br)c21)OCO3, the Activity (RAW264.7 [2]) is reported as “Non-Toxic” and the inhibition (RAW264.7 [5]) is reported as “inactive”.
For Brc1[nH]c2cc3c(cc2c1Br)OCO3, the Activity (RAW264.7 [2]) was “Non-Toxic” and the inhibition at 50 µM (RAW264.7 [5]; RAW264.7, 96 h, time 4 day) was 40%.
In the case of CC(=O)n1ccc2c(Br)c3c(c(Br)c21)OCO3, the IC50 (RAW264.7 [1]; Mus musculus, RAW264.7, 96 h) is reported as 11.7 µM and the Activity (RAW264.7 [2]) is reported as “Non-Toxic”.
With Cc1c[nH]c2c(Br)c3c(c(Br)c12)OCO3 the IC50 (RAW264.7 [1]; Mus musculus, RAW264.7, 96 h) was 8.1 µM and the Activity (RAW264.7 [2]) was “Non-Toxic”.
In the case of OCc1c[nH]c2c(Br)c3c(c(Br)c12)OCO3, the IC50 (RAW264.7 [1]; Mus musculus, RAW264.7, 96 h) is reported as 10 µM and the Activity (RAW264.7 [2]) is reported as “Non-Toxic”.
Brc1c2c(cc3cc[nH]c13)OCO2 was tested, and the IC50 (RAW264.7 [1]; Mus musculus, RAW264.7, 96 h) was 35.4 µM and the Activity (RAW264.7 [2]) was “Non-Toxic”.
CCCCCCCC(=O)n1ccc2c(Br)c3c(c(Br)c21)OCO3 was tested, and the IC50 (RAW264.7 [1]; Mus musculus, RAW264.7, 96 h) was 11.1 µM and the Activity (RAW264.7 [2]) was “Non-Toxic”.
CCCCCCCCCCCCCC(=O)n1ccc2c(Br)c3c(c(Br)c21)OCO3 was tested, and the Activity (RAW264.7 [2]) was “Non-Toxic” and the inhibition (RAW264.7 [5]) was “inactive”.
For O=Cc1c[nH]c2c(Br)c3c(c(Br)c12)OCO3, the IC50 (RAW264.7 [1]; Mus musculus, RAW264.7, 96 h) was 13.9 µM and the Activity (RAW264.7 [2]) was “Non-Toxic”.
